{"source": "patent US7416741B2", "about": "“Copper lowering treatment of inflammatory and fibrotic diseases” (The Regents of the University of Michigan, priority 2002, dated 2008)", "key": {"IL-1β": {"test_system": "IL-1β", "test": "Plasma IL-1β in Con A treated mice", "type": "in vivo, mouse", "conditions": "Ex 5 Exp 3; p=0.15", "from_the_text": "In a third experiment, two Con A injections one week apart were given to 10 mice. Five of the mice had begun TM treatment 5 days prior to the first injection. All the mice were sacrificed 2 hrs after the last Con A injection."}, "[1]": {"test_system": "animal model of renal fibrosis", "test": "Streptozotocin rat model of renal fibrosis", "type": "in vivo", "conditions": "Ex 7", "method": "A study is carried out in an animal model of renal fibrosis. After kidney injury of almost any type, a diffuse interstitial fibrosis (believed to be due to over-activity of the TGFβ pathway) produces kidney failure. Rats are made diabetic by administering streptozotocin; renal fibrosis is typically well developed by 60 days after initiation of streptozotocin administration. TM therapy is initiated at varying times relative to streptozotocin administration in several groups of rats, and the results compared to control groups not receiving TM. Typically, at least three […] are present in each experimental group. In one group, TM therapy is initiated prior to streptozotocin administration, to determine whether TM therapy mitigates the pancreatic damage, as it mitigates hepatitis/cirrhosis in the concanavilin A mouse model described above. In other groups, TM is started after streptozotocin administration, at various times, to determine if it can mitigate the renal fibrosis that develops after streptozotocin administration."}, "cancer patients [2]": {"test_system": "cancer patients", "test": "TM therapy in cancer patients", "type": "in vivo, human", "conditions": "180 mg/day induction dose", "method": "TM has also shown positive effects in spontaneous canine cancers. A clinical phase ½ study of a variety of metastatic and advanced cancers has shown positive results, with an average of 11 months freedom from progression in evaluable patients, and long term stabilization in three patients (G J Brewer et al., Clin. Cancer Res., 6:1-10 [2000]). A number of phase 2 studies of specific cancers are under way.\nThe current cancer therapy induction dose for TM is 40 mg 3×daily with meals and 60 mg at bedtime separated from food (180 mg/day). At this dose, it takes 15-25 days to induce cancer patients into the Cp target range. This same induction dose is used for IPF patients. All patients remain on their induction doses until they reach target Cp levels, then are switched to maintenance therapy."}, "cancer patients [3]": {"test_system": "cancer patients", "conditions": "clinical phase ½ study of metastatic and advanced cancers; cited from earlier work"}, "Con A mouse model": {"test_system": "Con A mouse model", "test": "Serum ALT in the Con A mouse model of liver damage", "type": "in vivo", "conditions": "for Serum ALT / Serum ALT, Mean: Ex 5 Exp 1; for Serum ALT: one mouse; for Serum ALT, Mean: after 4th injection", "method": "A study was carried out in a mouse model of concanavilin A (Con A) production of liver cirrhosis. There were four experimental groups of several mice each. […] The Con A was injected intravenously once weekly into mice (0.3 mg/mouse/week), and produced a hepatitis, which is manifested by an increasing level of alanine transaminase (ALT) enzymes in the blood. The TM was given once daily by […] in a dose of 0.7 mg/mouse/day beginning 7 days prior to ConA treatment. During days 9 to 11 after Con A, the TM-treated mice received 1.2 mg of TM daily, to ensure adequate lowering of copper levels, and then received 0.7 mg daily for the duration of the study. A blood sample was obtained 28 days after ConA treatment, and the mice were sacrificed on the same day. Serum alanine transaminase (ALT) was measured in Sigma-Frankel (SF) units, where one unit is the formation of 0.000482 umoles of glutamate/minute at pH 7.5 and 25 ° C.\nThis example describes additional TM treatment experiments in the model Concanavalin (Con A) mouse model of liver damage. As described previously, in the Con A mouse model, intravenously administered Con A produces an inflammatory reaction and cell damage in the animal's liver that is marked by the release hepatic transaminase enzymes, such as […] (ALT), into the blood. Several different experiments are reported in this example\nTwenty-four hours after each of the first three injections, one mouse from each group was bled, and serum ALT measured. In this experiment, TM was started in the TM treated mice before the first Con A injection. After the fourth injection of Con A, all the mice were bled for ALT and Cp measurements and the experiment terminated. The Cp levels in TM treated mice were 25-50% of non-TM treated animals.\nIn a second experiment, Con A was given in weekly injections for four weeks, prior to any treatment with TM. The objective was to see if TM treatment would be useful after considerable organ damage had been allowed to occur. Then, one group of Con A treated animals were initiated on TM therapy."}, "TGFβ [4]": {"test_system": "TGFβ", "test": "TGFβ ELISA in brain homogenates of Tg2576 mice", "type": "in vivo, mouse", "conditions": "Ex 8; TM-treated Tg2576 mice", "method": "Brain homogenates of left hemi-brains are used for detection of human Aβ40 and Aβ42 by ELISA, as previously described (J Gau J et al., Amer. J. Pathology, 160 2:731-738 […]). Homogenates are centrifuged at 7840×g for 5 minutes at 4 ° C. to remove insoluble material. A sandwich ELISA is performed on the supernatants using BAN50 as the capture antibody and either horseradish peroxidase-coupled BA-27 or BC-05 as the detection antibody for Aβ40 or Aβ42, respectively. BAN-50 is a monoclonal antibody specific for Aβ1-10. All samples are measured in triplicate. Standard curves for the ELISA are constructed using pure human Aβ40 and Aβ42 (Bachem). In addition to measurements of Aβ, a commercially available ELISA is used to detect TGFβ levels in brain homogenates of the two groups."}, "rats": {"test_system": "rats", "conditions": "cited from earlier work"}, "TGFβ [5]": {"test_system": "TGFβ", "test": "Lung TGFβ levels (ELISA or PAI-1 promoter-luciferase cell line), bleomycin model", "type": "in vivo, mouse", "method": "Lung TGFβ levels were measured using either ELISA with a kit from R&D Systems (Minneapolis, Minn.), or using a cell line stably transfected with a plasminogen activator inhibitor-1 (PAI-1) promoter-luciferase construct (M Abe et al., Analytical Biochemistry, 216:276-284 [1994]). Briefly for the latter assay, mink lung epithelial cells transfected with the PAI-1 promoter construct were incubated with the indicated activated (by pre-acidification) test samples diluted (1:2 dilution) in fresh media. After a 24 hr incubation, the cells were lysed with reporter lysis buffer (Promega, Madison, Wis.). Luciferase activity was measured by the luciferase assay system (Promega) and read using a Reporter microplate luminometer (Turner Designs, Sunnyvale, Calif.). Human TGFβ1 (R&D Systems) was used as a standard."}}, "note": "Read-outs that look alike come from different tables or passages of the source."}
{"compound": "[SH-].[SH-].[S]=[Mo]=[S]", "note": "[TM, tetrathiomolybdate]", "values": [{"measurement": "plasma levels of IL-1β", "setting": "IL-1β", "result": "close to being significantly lower"}, {"measurement": "renal fibrosis", "setting": "[1]; TM after diabetes is induced", "result": "mitigates the renal fibrosis"}, {"measurement": "pancreatic damage", "setting": "[1]; TM before streptozotocin", "result": "mitigates pancreatic damage"}, {"measurement": "time to induce patients into the Cp target range", "setting": "cancer patients [2]", "result": "15 to 25", "unit": "days"}, {"measurement": "average freedom from progression in evaluable patients", "setting": "cancer patients [3]", "result": 11, "unit": "months"}, {"measurement": "ConA induced increase of serum alanine transaminase (ALT)", "setting": "Con A mouse model; Ex 4, TM 0.7 mg/mouse/day from 7 days before ConA, 28 days", "result": "almost completely inhibits"}, {"measurement": "Serum ALT", "setting": "Con A mouse model; Con A + TM, 24 h after 1st Con A injection", "result": 52, "unit": "Sigma-Frankel units"}, {"measurement": "Serum ALT", "setting": "Con A mouse model; Con A + TM, after 2nd injection", "result": 50, "unit": "Sigma-Frankel units"}, {"measurement": "Serum ALT", "setting": "Con A mouse model; Con A + TM, after 3rd injection", "result": 63, "unit": "Sigma-Frankel units"}, {"measurement": "Serum ALT, Mean", "setting": "Con A mouse model; Con A + TM, n 4", "result": "74^2,3 Sigma-Frankel units"}, {"measurement": "Serum ALT", "setting": "Con A mouse model; TM only control, 24 h after 1st injection", "result": 85, "unit": "Sigma-Frankel units"}, {"measurement": "Serum ALT", "setting": "Con A mouse model; TM only control, after 2nd injection", "result": 39, "unit": "Sigma-Frankel units"}, {"measurement": "Serum ALT", "setting": "Con A mouse model; TM only control, after 3rd injection", "result": 49, "unit": "Sigma-Frankel units"}, {"measurement": "Serum ALT, Mean", "setting": "Con A mouse model; TM only control, n 3", "result": 38, "unit": "Sigma-Frankel units"}, {"measurement": "ALT values", "setting": "Con A mouse model; Ex 5 Exp 2, TM started after four weeks of weekly Con A, Con A continued", "result": "returned to normal"}, {"measurement": "levels of TGFβ in brain homogenates", "setting": "TGFβ [4]", "result": "significant reduction"}, {"measurement": "effects on copper levels (plasma ceruloplasmin, liver and kidney copper)", "setting": "rats; approximately 6 mg of TM per kilogram of diet", "result": "substantial effects on copper levels"}, {"measurement": "anemia", "setting": "rats; approximately 12 mg of TM per kilogram of diet", "result": "Mild anemia"}, {"measurement": "skeletal lesions", "setting": "rats; approximately 12 mg of TM", "result": "one of six animals"}, {"measurement": "anemia", "setting": "rats; approximately 18 mg of TM", "result": "severe"}, {"measurement": "growth rate", "setting": "rats; approximately 18 mg of TM", "result": "markedly impaired"}, {"measurement": "skeletal lesions", "setting": "rats; approximately 18 mg of TM", "result": "all animals had skeletal lesions"}, {"measurement": "lung TGFβ protein level (ELISA), bleomycin-induced increase", "setting": "TGFβ [5]; Ex 2 Exp 1, bleomycin/TM, day 7, p=0.06", "result": "inhibited this increase"}, {"measurement": "lung TGFβ protein levels (PAI-1 promoter-luciferase), bleomycin-induced increase", "setting": "TGFβ [5]; Ex 2 Exp 2, TM from day 5, day 21, not statistically significant", "result": "completely inhibited this increase"}, {"measurement": "lung TGFβ protein levels (ELISA)", "setting": "TGFβ [5]; Ex 2 Exp 3, TM started 5 days prior to bleomycin (Bleo/TM-5), p=0.04", "result": "significantly inhibited"}]}
